Measured values from ChEMBL document CHEMBL4630909 (2021).

Columns and labels:
D(1A) dopamine receptor [1] = molecular target: T1, D(1A) dopamine receptor (Homo sapiens, UniProt P21728); conditions: Compound concentration 10.0 uM
[2] = molecular target: T2, Bromodomain-containing protein 8 (Homo sapiens, UniProt Q9H0E9); experiment: BRD8(2) DiscoverX BROMOscan
[3] = molecular target: Nucleosome-remodeling factor subunit BPTF (Homo sapiens, UniProt Q12830); experiment: FALZ DiscoverX BROMOscan
[4] = molecular target: E3 ubiquitin-protein ligase TRIM33 (Homo sapiens, UniProt Q9UPN9); experiment: TRIM33(PHD,Bromo.) DiscoverX BROMOscan
[5] = molecular target: Bromodomain adjacent to zinc finger domain protein 2A (Homo sapiens, UniProt Q9UIF9); experiment: BAZ2A DiscoverX BROMOscan
[6] = molecular target: Histone acetyltransferase KAT2A (Homo sapiens, UniProt Q92830); experiment: GCN5L2 DiscoverX BROMOscan
Peregrin = Peregrin (Homo sapiens, UniProt P55201); experiment: BRPF1 DiscoverX BROMOscan
[7] = molecular target: T2, Bromodomain-containing protein 8; experiment: BRD8(1) DiscoverX BROMOscan
[8] = molecular target: T3, Beta-2 adrenergic receptor (Homo sapiens, UniProt P07550); conditions: Compound concentration 10.0 uM
[9] = molecular target: Beta-3 adrenergic receptor (Homo sapiens) (UniProt P13945); conditions: Compound concentration 10.0 uM
[10] = molecular target: Sigma intracellular receptor 2 (Homo sapiens) (UniProt Q5BJF2); conditions: Compound concentration 10.0 uM
[11] = molecular target: Bromodomain adjacent to zinc finger domain protein 2B (Homo sapiens, UniProt Q9UIF8); experiment: BAZ2B DiscoverX BROMOscan
[12] = molecular target: Alpha-2C adrenergic receptor (Homo sapiens) (UniProt P18825); conditions: Compound concentration 10.0 uM
[13] = molecular target: 5-hydroxytryptamine receptor 7 (Homo sapiens) (UniProt P34969); conditions: Compound concentration 10.0 uM
[14] = molecular target: Nuclear receptor subfamily 1 group I member 2 (Homo sapiens, UniProt O75469); experiment: (§1) Cross screening panel
Acetylcholinesterase = Acetylcholinesterase (Homo sapiens, UniProt P22303); experiment: as §1
Substance-P receptor = Substance-P receptor (Homo sapiens, UniProt P25103); experiment: as §1
[15] = molecular target: Solute carrier organic anion transporter family member 1B1 (Homo sapiens, UniProt Q9Y6L6); experiment: as §1
Aurora kinase B = Aurora kinase B (Homo sapiens, UniProt Q96GD4); experiment: as §1
[16] = molecular target: Aryl hydrocarbon receptor (Homo sapiens, UniProt P35869); experiment: as §1
Histamine H1 receptor = Histamine H1 receptor (Homo sapiens, UniProt P35367); experiment: as §1
[17] = molecular target: Amine oxidase [flavin-containing] A (Homo sapiens, UniProt P21397); experiment: as §1
[18] = molecular target: T3, Beta-2 adrenergic receptor; experiment: as §1
Target sequence in this assay (P07550 whole entry): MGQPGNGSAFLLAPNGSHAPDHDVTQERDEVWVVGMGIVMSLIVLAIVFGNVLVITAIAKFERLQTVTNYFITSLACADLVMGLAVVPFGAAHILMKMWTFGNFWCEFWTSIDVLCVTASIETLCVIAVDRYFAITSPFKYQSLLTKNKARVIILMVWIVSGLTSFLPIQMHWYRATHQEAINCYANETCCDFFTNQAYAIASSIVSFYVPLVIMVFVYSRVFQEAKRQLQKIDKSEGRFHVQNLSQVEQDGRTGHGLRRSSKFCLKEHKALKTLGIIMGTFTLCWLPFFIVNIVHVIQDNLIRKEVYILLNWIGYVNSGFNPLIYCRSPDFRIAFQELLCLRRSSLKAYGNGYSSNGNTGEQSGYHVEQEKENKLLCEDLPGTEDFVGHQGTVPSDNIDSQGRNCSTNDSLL

[19] = molecular target: cGMP-inhibited 3',5'-cyclic phosphodiesterase 3A (Homo sapiens, UniProt Q14432); experiment: as §1
[20] = molecular target: Prostaglandin G/H synthase 2 (Homo sapiens, UniProt P35354); experiment: as §1
[21] = molecular target: Alpha-1B adrenergic receptor (Homo sapiens, UniProt P35368); experiment: as §1
Adenosine receptor A2a = Adenosine receptor A2a (Homo sapiens, UniProt P29274); experiment: as §1
[22] = molecular target: Sodium channel protein type 5 subunit alpha (Homo sapiens, UniProt Q14524); experiment: as §1
D(2) dopamine receptor = D(2) dopamine receptor (Homo sapiens, UniProt P14416); experiment: as §1
[23] = molecular target: Potassium voltage-gated channel subfamily A member 5 (Homo sapiens, UniProt P22460); experiment: as §1
[24] = molecular target: Sodium-dependent noradrenaline transporter (Homo sapiens, UniProt P23975); experiment: as §1
[25] = molecular target: 5-hydroxytryptamine receptor 2A (Homo sapiens, UniProt P28223); experiment: as §1
[26] = molecular target: Muscarinic acetylcholine receptor M1 (Homo sapiens, UniProt P11229); experiment: as §1
[27] = molecular target: Phosphatidylinositol 4,5-bisphosphate 3-kinase catalytic subunit gamma isoform (Homo sapiens, UniProt P48736); experiment: as §1
[28] = molecular target: Sodium-dependent serotonin transporter (Homo sapiens, UniProt P31645); experiment: as §1
Cannabinoid receptor 2 = Cannabinoid receptor 2 (Homo sapiens, UniProt P34972); experiment: as §1
[29] = molecular target: Muscarinic acetylcholine receptor M2 (Homo sapiens, UniProt P08172); experiment: as §1
D(1A) dopamine receptor [30] = molecular target: T1, D(1A) dopamine receptor; experiment: as §1
[31] = molecular target: 5-hydroxytryptamine receptor 2C (Homo sapiens, UniProt P28335); experiment: as §1
[32] = molecular target: Kappa-type opioid receptor (Homo sapiens, UniProt P41145); experiment: as §1
Vasopressin V1a receptor = Vasopressin V1a receptor (Homo sapiens, UniProt P37288); experiment: as §1
[33] = molecular target: Voltage-dependent L-type calcium channel subunit alpha-1C (Homo sapiens, UniProt Q13936); experiment: as §1
[34] = molecular target: Glutamate receptor ionotropic, NMDA 2B (Homo sapiens, UniProt Q13224); experiment: as §1
Mu-type opioid receptor = Mu-type opioid receptor (Homo sapiens, UniProt P35372); experiment: as §1
[35] = molecular target: 5-hydroxytryptamine receptor 1B (Homo sapiens, UniProt P28222); experiment: as §1
[36] = molecular target: Tyrosine-protein kinase Lck (Homo sapiens, UniProt P06239); experiment: as §1
[37] = molecular target: 3',5'-cyclic-AMP phosphodiesterase 4B (Homo sapiens, UniProt Q07343); experiment: as §1
[38] = molecular target: Alpha-2C adrenergic receptor (Homo sapiens, UniProt P18825); experiment: as §1
[39] = molecular target: Acetylcholine receptor subunit alpha (Homo sapiens, UniProt P02708); experiment: as §1

Sequence of 5-hydroxytryptamine receptor 1B (P28222 whole entry): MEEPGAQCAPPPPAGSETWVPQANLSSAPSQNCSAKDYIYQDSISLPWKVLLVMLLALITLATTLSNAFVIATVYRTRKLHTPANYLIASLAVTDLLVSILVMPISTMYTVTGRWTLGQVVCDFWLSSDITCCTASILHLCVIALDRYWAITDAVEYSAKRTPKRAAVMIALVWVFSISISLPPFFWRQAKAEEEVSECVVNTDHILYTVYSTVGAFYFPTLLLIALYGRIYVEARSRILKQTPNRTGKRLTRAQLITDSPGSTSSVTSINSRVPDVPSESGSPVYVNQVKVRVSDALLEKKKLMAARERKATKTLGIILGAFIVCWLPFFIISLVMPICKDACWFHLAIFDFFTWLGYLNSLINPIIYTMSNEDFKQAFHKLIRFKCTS
Sequence of Muscarinic acetylcholine receptor M2 (P08172 whole entry): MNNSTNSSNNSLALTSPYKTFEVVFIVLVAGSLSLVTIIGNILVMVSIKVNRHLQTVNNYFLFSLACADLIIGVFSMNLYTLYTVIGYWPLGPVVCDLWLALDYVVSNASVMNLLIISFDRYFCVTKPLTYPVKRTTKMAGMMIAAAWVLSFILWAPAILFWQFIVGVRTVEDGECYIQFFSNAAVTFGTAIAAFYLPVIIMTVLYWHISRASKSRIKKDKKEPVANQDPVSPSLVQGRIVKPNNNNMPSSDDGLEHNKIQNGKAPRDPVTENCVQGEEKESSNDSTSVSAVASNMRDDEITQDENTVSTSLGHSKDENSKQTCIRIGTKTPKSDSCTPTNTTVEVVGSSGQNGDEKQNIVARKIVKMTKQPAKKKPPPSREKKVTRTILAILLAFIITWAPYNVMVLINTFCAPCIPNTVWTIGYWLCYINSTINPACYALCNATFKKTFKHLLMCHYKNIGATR
Sequence of 5-hydroxytryptamine receptor 2A (P28223 whole entry): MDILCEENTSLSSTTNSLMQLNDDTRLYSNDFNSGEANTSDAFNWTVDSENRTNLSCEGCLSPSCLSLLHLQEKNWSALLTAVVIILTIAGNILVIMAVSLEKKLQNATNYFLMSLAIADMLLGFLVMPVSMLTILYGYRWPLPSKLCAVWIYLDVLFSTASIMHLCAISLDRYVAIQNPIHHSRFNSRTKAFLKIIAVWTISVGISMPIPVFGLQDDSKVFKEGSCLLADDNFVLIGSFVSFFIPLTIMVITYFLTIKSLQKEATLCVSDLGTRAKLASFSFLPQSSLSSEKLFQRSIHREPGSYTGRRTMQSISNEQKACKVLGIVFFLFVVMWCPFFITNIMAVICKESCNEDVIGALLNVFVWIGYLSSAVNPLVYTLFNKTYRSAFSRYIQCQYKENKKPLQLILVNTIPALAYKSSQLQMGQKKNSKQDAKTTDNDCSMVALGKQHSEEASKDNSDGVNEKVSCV
T2 sequence (Q9H0E9 whole entry): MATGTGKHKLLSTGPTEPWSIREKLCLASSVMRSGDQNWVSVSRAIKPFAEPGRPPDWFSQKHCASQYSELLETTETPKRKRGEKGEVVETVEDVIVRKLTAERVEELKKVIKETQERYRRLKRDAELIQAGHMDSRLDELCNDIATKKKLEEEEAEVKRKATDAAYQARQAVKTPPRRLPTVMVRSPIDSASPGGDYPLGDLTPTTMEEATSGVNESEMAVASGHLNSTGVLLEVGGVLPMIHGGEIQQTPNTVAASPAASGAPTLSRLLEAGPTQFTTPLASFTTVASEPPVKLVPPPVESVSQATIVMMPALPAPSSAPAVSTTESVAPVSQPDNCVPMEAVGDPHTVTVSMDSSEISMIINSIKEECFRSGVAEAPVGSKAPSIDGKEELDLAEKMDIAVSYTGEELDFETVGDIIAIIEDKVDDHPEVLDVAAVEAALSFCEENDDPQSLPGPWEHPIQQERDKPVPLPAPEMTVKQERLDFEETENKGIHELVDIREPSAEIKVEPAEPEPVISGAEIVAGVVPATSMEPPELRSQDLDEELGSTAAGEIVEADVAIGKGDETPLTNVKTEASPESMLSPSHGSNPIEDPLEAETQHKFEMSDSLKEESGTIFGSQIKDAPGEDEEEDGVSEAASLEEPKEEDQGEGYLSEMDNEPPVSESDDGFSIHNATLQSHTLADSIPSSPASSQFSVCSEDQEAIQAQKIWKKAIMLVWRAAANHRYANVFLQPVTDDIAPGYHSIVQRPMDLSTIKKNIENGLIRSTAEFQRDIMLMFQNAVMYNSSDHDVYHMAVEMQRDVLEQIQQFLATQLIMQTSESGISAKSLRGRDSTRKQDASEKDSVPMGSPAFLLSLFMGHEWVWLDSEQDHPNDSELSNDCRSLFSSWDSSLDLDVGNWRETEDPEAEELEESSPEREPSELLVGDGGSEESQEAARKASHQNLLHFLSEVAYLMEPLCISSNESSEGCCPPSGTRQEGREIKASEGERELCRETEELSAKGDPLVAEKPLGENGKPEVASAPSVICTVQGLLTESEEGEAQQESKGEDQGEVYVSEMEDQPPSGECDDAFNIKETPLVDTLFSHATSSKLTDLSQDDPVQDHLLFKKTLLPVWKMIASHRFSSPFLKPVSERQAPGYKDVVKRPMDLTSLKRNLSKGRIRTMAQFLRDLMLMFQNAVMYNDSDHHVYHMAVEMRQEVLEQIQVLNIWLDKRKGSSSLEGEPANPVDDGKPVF
Sequence of Muscarinic acetylcholine receptor M1 (P11229 whole entry, canonical isoform): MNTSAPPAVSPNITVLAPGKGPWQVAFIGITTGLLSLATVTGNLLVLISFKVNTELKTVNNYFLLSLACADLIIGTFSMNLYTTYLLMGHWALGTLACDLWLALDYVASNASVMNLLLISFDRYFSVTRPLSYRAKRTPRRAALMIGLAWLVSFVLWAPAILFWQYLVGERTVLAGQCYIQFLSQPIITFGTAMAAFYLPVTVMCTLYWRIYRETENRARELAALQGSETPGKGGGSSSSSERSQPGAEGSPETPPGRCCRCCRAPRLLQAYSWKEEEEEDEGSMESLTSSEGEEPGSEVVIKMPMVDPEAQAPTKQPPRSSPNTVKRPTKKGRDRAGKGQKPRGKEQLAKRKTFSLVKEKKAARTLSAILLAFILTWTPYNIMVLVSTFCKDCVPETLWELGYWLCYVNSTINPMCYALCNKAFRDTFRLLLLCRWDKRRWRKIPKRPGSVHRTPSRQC
T1 sequence (P21728 whole entry): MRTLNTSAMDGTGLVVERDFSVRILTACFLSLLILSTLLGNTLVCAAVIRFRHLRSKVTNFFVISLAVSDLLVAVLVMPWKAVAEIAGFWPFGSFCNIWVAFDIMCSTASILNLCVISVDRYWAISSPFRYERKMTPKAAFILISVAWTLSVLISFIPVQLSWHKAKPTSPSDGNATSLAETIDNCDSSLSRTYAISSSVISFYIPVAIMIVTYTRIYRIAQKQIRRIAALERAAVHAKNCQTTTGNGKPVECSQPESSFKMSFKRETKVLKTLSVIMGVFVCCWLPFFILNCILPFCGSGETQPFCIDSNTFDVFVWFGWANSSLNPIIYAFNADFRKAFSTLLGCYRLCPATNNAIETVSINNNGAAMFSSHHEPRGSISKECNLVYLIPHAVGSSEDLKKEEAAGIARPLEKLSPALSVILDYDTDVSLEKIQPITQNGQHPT
Sequence of 5-hydroxytryptamine receptor 2C (P28335 whole entry): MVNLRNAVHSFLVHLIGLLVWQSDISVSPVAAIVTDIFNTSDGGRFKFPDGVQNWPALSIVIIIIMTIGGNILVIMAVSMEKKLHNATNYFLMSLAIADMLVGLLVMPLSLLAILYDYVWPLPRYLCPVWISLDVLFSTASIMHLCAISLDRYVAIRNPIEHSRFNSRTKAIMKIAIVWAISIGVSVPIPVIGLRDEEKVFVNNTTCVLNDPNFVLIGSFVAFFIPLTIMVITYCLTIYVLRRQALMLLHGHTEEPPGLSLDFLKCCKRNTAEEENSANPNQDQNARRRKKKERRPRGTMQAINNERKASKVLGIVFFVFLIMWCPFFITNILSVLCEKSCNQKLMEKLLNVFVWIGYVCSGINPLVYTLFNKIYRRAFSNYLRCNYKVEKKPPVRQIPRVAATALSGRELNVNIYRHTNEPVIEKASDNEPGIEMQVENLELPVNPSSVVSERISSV
Sequence of D(2) dopamine receptor (P14416 whole entry): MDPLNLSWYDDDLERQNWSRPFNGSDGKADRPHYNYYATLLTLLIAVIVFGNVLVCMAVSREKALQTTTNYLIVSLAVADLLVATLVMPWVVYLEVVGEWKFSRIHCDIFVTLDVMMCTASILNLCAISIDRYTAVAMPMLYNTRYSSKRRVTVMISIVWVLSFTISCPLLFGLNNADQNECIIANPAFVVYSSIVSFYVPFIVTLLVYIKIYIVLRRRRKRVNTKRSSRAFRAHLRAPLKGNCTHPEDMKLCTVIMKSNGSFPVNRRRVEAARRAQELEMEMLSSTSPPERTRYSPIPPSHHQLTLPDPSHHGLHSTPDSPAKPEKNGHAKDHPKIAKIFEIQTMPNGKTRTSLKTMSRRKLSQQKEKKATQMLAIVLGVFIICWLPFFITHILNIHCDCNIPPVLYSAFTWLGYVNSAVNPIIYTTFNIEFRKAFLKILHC
Sequence of Sigma intracellular receptor 2 (Homo sapiens) (Q5BJF2 whole entry, the tested form may be a part): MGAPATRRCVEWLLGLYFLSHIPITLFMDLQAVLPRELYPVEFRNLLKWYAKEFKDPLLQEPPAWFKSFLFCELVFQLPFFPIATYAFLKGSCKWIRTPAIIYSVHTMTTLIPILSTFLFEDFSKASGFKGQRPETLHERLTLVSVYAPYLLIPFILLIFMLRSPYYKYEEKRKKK

With `CNC(=O)c1cc(C(=O)NC2CC2)cn(Cc2ccccc2)c1=O` [GSK620] the inhibition (D(1A) dopamine receptor [1]) was 6.94%, the Kd [2] was 31.6 µM and the Kd [3] was 25.1 µM. For the same compound, the Kd [4] was 31.6 µM, the Kd [5] was 31.6 µM and the Kd [6] was 31.6 µM. It also gave a Kd (Peregrin) of 31.6 µM, a Kd [7] of 31.6 µM and an inhibition [8] of 16.5%. It also gave an inhibition [9] of 18.6%, an inhibition [10] of 7.83% and a Kd [11] of 31.6 µM. The inhibition [12] was 0.69%, the inhibition [13] was 13.6% and the EC50 [14] was over 50.1 µM. For the same compound, the IC50 (Acetylcholinesterase) was over 100 µM, the IC50 (Substance-P receptor) was over 25.1 µM and the IC50 [15] was over 50.1 µM. For the same compound, the IC50 (Aurora kinase B) was over 31.6 µM, the EC50 [16] was over 100 µM and the IC50 (Histamine H1 receptor) was over 25.1 µM. The IC50 [17] was over 100 µM, the EC50 [18] was over 100 µM and the IC50 [18] was over 100 µM. The IC50 [19] was over 100 µM, the IC50 [20] was over 100 µM and the IC50 [21] was over 25.1 µM. The EC50 (Adenosine receptor A2a) was over 100 µM, the IC50 [22] was over 100 µM and the EC50 (D(2) dopamine receptor) was over 100 µM. The IC50 (D(2) dopamine receptor) was over 100 µM, the IC50 [23] was over 50.1 µM and the IC50 [24] was over 100 µM. The EC50 [25] was over 25.1 µM, the IC50 [25] was over 25.1 µM and the EC50 [26] was over 50.1 µM. It also gave an IC50 [26] of over 50.1 µM, an IC50 [27] of over 31.6 µM and an IC50 [28] of over 100 µM. It also gave an EC50 (Cannabinoid receptor 2) of over 10 µM, an EC50 [29] of over 50.1 µM and an IC50 [29] of over 50.1 µM. The IC50 (D(1A) dopamine receptor [30]) was over 100 µM, the EC50 [31] was over 25.1 µM and the IC50 [31] was over 25.1 µM. It also gave an EC50 [32] of over 100 µM, an IC50 (Vasopressin V1a receptor) of over 50.1 µM and an IC50 [33] of 79.4 µM. For the same compound, the IC50 [34] was over 50.1 µM, the EC50 (Mu-type opioid receptor) was over 100 µM and the EC50 [35] was over 100 µM. For the same compound, the IC50 [35] was over 100 µM, the IC50 [36] was over 31.6 µM and the IC50 [37] was over 100 µM. It also gave an EC50 [38] of over 100 µM and an EC50 [39] of over 50.1 µM.
